What all share (format): binding
The target of assay [1] is Recombinant human Bcl-2 protein (Homo sapiens (Human), UniProt P10415). Briefly: Bcl-2 TR-FRET Assay. The following applies: Bcl-2 wild type, TR-FRET; read-out: Biochemical assay (IC50, nM) Bcl-2 WT. The procedure: Biological Example: Bcl-2 TR-FRET Assay
Compounds disclosed herein were tested for blocking of Bcl-2 protein with its ligand in an assay based on Time-Resolved Fluorescence Resonance Energy Transfer (TR-FRET) methodology. Recombinant human 0.05 nM Bcl-2 protein was pre-incubated with a serial dilution of compounds disclosed herein (top final concentration is 1 uM or 0.1 uM or 0.02 uM or 0.01 uM, 10 points) at room temperature for 0.5 hour in an assay buffer containing 20 mM potassium phosphate buffer, pH 7.5, 50 mM NaCl. 1 mM EDTA, 0.05% Tween-20, 0.01% BSA. Then the FITC labeled Bak peptide Ac-GQVGRQLAIIGDK(FITC)INR-amide (0.5 nM) and MAb Anti 6His Tb cryptate Gold were added to plate and further incubated at room temperature for 1 hour. The TR-FRET signals (337 nm-520 nm-490 nm) were read on BMG PHERAstar FSX instrument. The inhibition percentage of Bcl-2 interaction with its ligand in presence of increasing concentrations of compounds was calculated based on the TR-FRET signals. The IC50 for each compound was derived from fitting the data to the four-parameter logistic equation by Graphpad Prism software or Dotmatics.
On the technique in general: TR-FRET usually uses a lanthanide donor and a delayed reading to cut background.

Assay [2] deals with recombinant human Bcl-2-G101V protein. Briefly: Bcl-2-G101V TR-FRET Assay. The following applies: ratio of biochemical IC50 Bcl-2 G101V / Bcl-2 WT. The procedure: (§1) Biological Example: Bcl-2-G101V TR-FRET Assay
(§2) […]. The TR-FRET signals (ex337 nm, em490 nm/520 nm) were read on BMG PHERAstar FSX instrument. The inhibition percentage of Bcl-2-G101V interaction with its ligand in presence of increasing concentrations of compounds was calculated based on the ratio of fluorescence at 490 nm to that at 520 nm. The IC50 for each compound was derived from fitting the data to the four-parameter logistic equation by Graphpad Prism software or Dotmatics.

For assay [3], the target named is recombinant human Bcl-2-G101V protein (Homo sapiens (Human), UniProt P10415, G101V). Description: Bcl-2-G101V TR-FRET Assay. Particulars: Bcl-2 G101V mutant, TR-FRET; read-out: Biochemical assay (IC50, nM) Bcl-2 G101V. As to the method:
as §1, §2

As to `CC(C)c1ccccc1C1CN(C2CCOC2)CCN1C1CC2(CCN(c3ccc(C(=O)NS(=O)(=O)c4ccc(NC[C@H]5CC[C@](C)(O)CC5)c([N+](=O)[O-])c4)c(Oc4cnc5[nH]ccc5c4)c3)CC2)C1` (stereo partly drawn) [Example 8, 2-((1H-pyrrolo[2,3-b]pyridin-5-yl)oxy)-N-((4-((((1r,4r)-4-hydroxy-4-methylcyclohexyl)methyl)amino)-3-nitrophenyl)sulfonyl)-4-(2-(2-(2-isopropylphenyl)-4-(tetrahydrofuran-3-yl)piperazin-1-yl)-7-azaspiro[3.5]nonan-7-yl)benzamide], the figures for the IC50 in assay [1] and in assay [3] were 0.02 nM and 0.32 nM, respectively. Also, the “Ratio of Bcl-2 G101V/WT” value in assay [2] stood at 16.0.

Turning to `COc1ccc(CN2CCN(C3CC4(CCN(c5ccc(C(=O)NS(=O)(=O)c6ccc(NC[C@H]7CC[C@](C)(O)CC7)c([N+](=O)[O-])c6)c(Oc6cnc7[nH]ccc7c6)c5)CC4)C3)C(c3ccccc3CC(C)C)C2)cc1` (stereo partly drawn) [Example 35, 2-((1H-pyrrolo[2,3-b]pyridin-5-yl)oxy)-N-((4-((((1r,4r)-4-hydroxy-4-methylcyclohexyl)methyl)amino)-3-nitrophenyl)sulfonyl)-4-(2-(2-(2-isobutylphenyl)-4-(4-methoxybenzyl)piperazin-1-yl)-7-azaspiro[3.5]nonan-7-yl) benzamide], the values for the 50% inhibitory concentration (IC50) in assay [1] and in assay [3] were 2.2 nM and 163 nM, respectively. Besides, in assay [2], the “Ratio of Bcl-2 G101V/WT” value was 74.1.

Turning to `COc1ccc(CN2CCN(C3CC4(CCN(c5ccc(C(=O)NS(=O)(=O)c6ccc(NC[C@H]7CC[C@](C)(O)CC7)c([N+](=O)[O-])c6)c(Oc6cnc7[nH]ccc7c6)c5)CC4)C3)C(c3ccccc3C3CCCC3)C2)cc1` (stereo partly drawn) [Example 36, 2-((1H-pyrrolo[2,3-b]pyridin-5-yl)oxy)-4-(2-(2-(2-cyclopentylphenyl)-4-(4-methoxybenzyl)piperazin-1-yl)-7-azaspiro[3.5]nonan-7-yl)-N-((4-((((1r,4r)-4-hydroxy-4-methylcyclohexyl)methyl)amino)-3-nitrophenyl)sulfonyl)benzamide], the IC50 (commonly the concentration that gives 50% inhibition) in assay [1] was 0.58 nM; in assay [3], 16 nM. In addition, the “Ratio of Bcl-2 G101V/WT” value in assay [2] was 27.6.

For `CC(C)c1ccccc1C1CN(Cc2cccc3c2CCCC3)CCN1C1CC2(CCN(c3ccc(C(=O)NS(=O)(=O)c4ccc(NC[C@H]5CC[C@](C)(O)CC5)c([N+](=O)[O-])c4)c(Oc4cnc5[nH]ccc5c4)c3)CC2)C1` (stereo partly drawn) [Example 55, 2-((1H-pyrrolo[2,3-b]pyridin-5-yl)oxy)-N-((4-((((1r,4r)-4-hydroxy-4-methylcyclohexyl)methyl)amino)-3-nitrophenyl)sulfonyl)-4-(2-(2-(2-isopropylphenyl)-4-((5,6,7,8-tetrahydronaphthalen-1-yl)methyl)piperazin-1-yl)-7-azaspiro[3.5]nonan-7-yl)benzamide], the IC50 in assay [1] amounted to 3.8 nM; in assay [3], 12 nM. Moreover, the “Ratio of Bcl-2 G101V/WT” value in assay [2] is given as 3.2.

For the compound `CC(C)c1ccccc1C1CN(Cc2cccc3c2CCCC3)CCN1C1CC2(CCN(c3ccc(C(=O)NS(=O)(=O)c4ccc(NCC5CCOCC5)c([N+](=O)[O-])c4)c(Oc4cnc5[nH]ccc5c4)c3)CC2)C1` (stereo not drawn) [Example 56, 2-((1H-pyrrolo[2,3-b]pyridin-5-yl)oxy)-4-(2-(2-(2-isopropylphenyl)-4-((5,6,7,8-tetrahydronaphthalen-1-yl)methyl)piperazin-1-yl)-7-azaspiro[3.5]nonan-7-yl)-N-((3-nitro-4-(((tetrahydro-2H-pyran-4-yl)methyl)amino)phenyl)sulfonyl) benzamide], the 50% inhibitory concentration (IC50) in assay [1] came to 2.7 nM; in assay [3], 13 nM. The “Ratio of Bcl-2 G101V/WT” value in assay [2] was 4.8.

For `CC#CC(c1ccccc1)N1CCN(C2CC3(CCN(c4ccc(C(=O)NS(=O)(=O)c5ccc(NC[C@H]6CC[C@](C)(O)CC6)c([N+](=O)[O-])c5)c(Oc5cnc6[nH]ccc6c5)c4)CC3)C2)C(c2ccccc2C(C)C)C1` (stereo partly drawn) [Example 63], the IC50 is 1.4 nM in assay [1] and 20 nM in assay [3]. The “Ratio of Bcl-2 G101V/WT” value in assay [2] was found to be 14.3.

Consider `CC(C)c1ccccc1C1CN(Cc2ccc(Cl)c(Cl)c2)CCN1C1CC2(CCN(c3ccc(C(=O)NS(=O)(=O)c4ccc(NC[C@H]5CC[C@](C)(O)CC5)c([N+](=O)[O-])c4)c(Oc4cnc5[nH]ccc5c4)c3)CC2)C1` (stereo partly drawn) [Example 117, 2-((1H-pyrrolo[2,3-b]pyridin-5-yl)oxy)-4-(2-(4-(3,4-dichlorobenzyl)-2-(2-isopropylphenyl)piperazin-1-yl)-7-azaspiro[3.5]nonan-7-yl)-N-((4-((((1r,4r)-4-hydroxy-4-methylcyclohexyl)methyl)amino)-3-nitrophenyl)sulfonyl)benzamide], for which the results for the concentration for half-maximal inhibition (IC50) in assay [1] and in assay [3] were 1.6 nM and 7.1 nM, respectively. For the same compound, the “Ratio of Bcl-2 G101V/WT” value in assay [2] turned out to be 4.4.

With `CC(C)c1ccccc1C1CN(Cc2cccc3c2OC(F)(F)O3)CCN1C1CC2(CCN(c3ccc(C(=O)NS(=O)(=O)c4ccc(NC[C@H]5CC[C@](C)(O)CC5)c([N+](=O)[O-])c4)c(Oc4cnc5[nH]ccc5c4)c3)CC2)C1` (stereo partly drawn) [Example 129, 2-((1H-pyrrolo[2,3-b]pyridin-5-yl)oxy)-4-(2-(4-((2,2-difluorobenzo [d][1,3]dioxol-4-yl)methyl)-2-(2-isopropylphenyl)piperazin-1-yl)-7-azaspiro[3.5]nonan-7-yl)-N-((4-((((1r,4r)-4-hydroxy-4-methylcyclohexyl)methyl)amino)-3-nitrophenyl)sulfonyl)benzamide], the 50% inhibitory concentration (IC50) in assay [1] came out at 1.8 nM; in assay [3], 7.8 nM. Further, the “Ratio of Bcl-2 G101V/WT” value in assay [2] came out at 4.4.

As for `COc1ccc(N2CCCC(N3CCN(C4CC5(CCN(c6ccc(C(=O)NS(=O)(=O)c7ccc(NC[C@H]8CC[C@](C)(O)CC8)c([N+](=O)[O-])c7)c(Oc7cnc8[nH]ccc8c7)c6)CC5)C4)C(c4ccccc4C(C)C)C3)C2)cc1` (stereo partly drawn) [Example 139, 2-((1H-pyrrolo[2,3-b]pyridin-5-yl)oxy)-N-((4-((((1r,4r)-4-hydroxy-4-methylcyclohexyl)methyl)amino)-3-nitrophenyl)sulfonyl)-4-(2-(2-(2-isopropylphenyl)-4-(1-(4-methoxyphenyl)piperidin-3-yl)piperazin-1-yl)-7-azaspiro[3.5]nonan-7-yl)benzamide], the results for the IC50 in assay [1] and in assay [3] were 0.65 nM and 5.6 nM, respectively. Besides, the “Ratio of Bcl-2 G101V/WT” value in assay [2] turned out to be 8.7.

Consider `COc1cc(CN2CCN(C3CC4(CCN(c5ccc(C(=O)NS(=O)(=O)c6ccc(NC[C@H]7CC[C@](C)(O)CC7)c([N+](=O)[O-])c6)c(Oc6cnc7[nH]ccc7c6)c5)CC4)C3)C(c3ccccc3C(C)C)C2)cc(C(F)(F)F)c1` (stereo partly drawn) [Example 227, 2-((1H-pyrrolo[2,3-b]pyridin-5-yl)oxy)-N-((4-((((1r,4r)-4-hydroxy-4-methylcyclohexyl)methyl)amino)-3-nitrophenyl)sulfonyl)-4-(2-(2-(2-isopropylphenyl)-4-(3-methoxy-5-(trifluoromethyl)benzyl)piperazin-1-yl)-7-azaspiro[3.5]nonan-7-yl) benzamide], for which the IC50 in assay [1] was 2 nM; in assay [3], 6.4 nM. Besides, in assay [2], the “Ratio of Bcl-2 G101V/WT” value came to 3.2.

As to `COc1ccc(CN2CCN(C3CC4(CCN(c5ccc(C(=O)NS(=O)(=O)c6ccc(NC[C@H]7CC[C@](C)(O)CC7)c([N+](=O)[O-])c6)c(Oc6cnc7[nH]ccc7c6)c5)CC4)C3)C(c3cc(Cl)ccc3C(C)C)C2)cc1` (stereo partly drawn) [Example 247, 2-((1H-pyrrolo[2,3-b]pyridin-5-yl)oxy)-4-(2-(2-(5-chloro-2-isopropylphenyl)-4-(4-methoxybenzyl)piperazin-1-yl)-7-azaspiro[3.5]nonan-7-yl)-N-((4-((((1r,4r)-4-hydroxy-4-methylcyclohexyl)methyl)amino)-3-nitrophenyl)sulfonyl)benzamide], the IC50 in assay [1] amounted to 0.8 nM; in assay [3] it was 3.3 nM. In addition, the “Ratio of Bcl-2 G101V/WT” value in assay [2] is recorded as 4.2.

On to `COc1cc(CN2CCN(C3CC4(CCN(c5ccc(C(=O)NS(=O)(=O)c6ccc(NC[C@H]7CC[C@](C)(O)CC7)c([N+](=O)[O-])c6)c(Oc6cnc7[nH]cc(F)c7c6)c5)CC4)C3)[C@H](c3ccccc3C(C)C)C2)ccc1C(F)(F)F` [Example 279], for which the results for the IC50 in assay [1] and in assay [3] were 2 nM and 6.3 nM, respectively. In addition, the “Ratio of Bcl-2 G101V/WT” value in assay [2] is reported as 3.2.

The record behind these values is patent US20240376097A1, “BCL-2 Inhibitor” (BeiGene Ltd., priority 2020, published 2024).
